According to US20080220056A1, “Treatment for liver disease” (UNIVERSITY OF SOUTHAMPTON, priority 2002, published 2008):

Legend:
Assay type in all cases: cell-based
[1] = tested on: NF-kB DNA binding activity; experiment: Electromobility shift assay for NF-kB DNA binding activity in rat hepatic stellate cells; conditions: activated rat HSC
Experimental: Crude high salt extractable nuclear protein was prepared from activated hepatic stellate cells for analysis of NF-kB DNA binding activity essentially as described (Elsharkawy et al., supra), aliquoted and stored at −80° C. until required. Extract protein concentrations were determined using the Lowry colorimetric assay (Lowry et al., supra) with bovine serum albumin as standard. A double stranded 5′ end labeled radiolabeled oligonucleotide [sense 5′-[…]-[…] (SEQ ID NO:1)] containing a consensus NF-kB DNA binding site as underlined (Baldwin et al., Annu. Rev. Immunol., (1996) 14:649-681) was used to determine NFkB DNA binding activity in crude nuclear extracts (Elsharkawy et al., supra).
The effect of gliotoxin on NF-kB activity in hepatic stellate cells was investigated. Culture-activated (14-day) rat hepatic stellate cells were incubated in the presence or absence of 10 ng/mL TNF-α fifteen minutes after addition of:
After a further 30 minutes, and before any significant morphologic changes, cells were washed with ice-cooled PBS, nuclear extracts prepared, and NF-kB DNA binding activity assessed by gel shift analysis. […] Each lane contained […] of protein and the results were the same for at least three separate experiments.

[2] = tested on: rat hepatic stellate cells; experiment: Morphology and detachment of culture-activated rat hepatic stellate cells (light microscopy)
Excerpt: Rat hepatic stellate cells (HSCs) were isolated by pronase/collagenase perfusion and purified by isopycnic density centrifugation in Opti-prep™ (Nycomed, Amersham, England) and elutriation essentially as previously described (Bahr et al., Hepatology (1999) 29:839-848). Human hepatic stellate cells were isolated from discarded resected liver via a similar protocol (Trim et al., J. Biol. Chem., (2000) 275:6657-6663). The use of human liver tissue for scientific investigation was approved by the UK South and West Local Research Ethics Committee and was subject to patient consent.
It has been shown recently that liver myofibroblasts may contribute to liver fibrogenesis and that liver myofibroblasts may have the potential to contaminate passaged hepatic stellate cell cultures (Knittel et al., Gastronenterology, (1999) 117:1205-1221). In this study, only primary cultures of hepatic stellate cells were used, which were desmin and glial fibrillary acid protein positive (markers shown to be expressed in hepatic stellate cells, but not liver myofibroblasts—Knittel et al., supra).
Cells were treated with gliotoxin dissolved in DMSO vehicle (added to medium from a 2000-fold molar concentrated stock). Control cells received DMSO vehicle only (i.e., 0.05% vol/vol). All other additions to culture medium were made from concentrated stocks dissolved in DMSO or by direct addition to culture medium. Protein contents of wells were determined using the Lowry assay (Lowry et al., J. Biol. Chem., (1951)193: 265-275).
Culture activated rat (14 day) and human (24 day) hepatic stellate cells were treated with DMSO solvent control or 1.5 μMol/L gliotoxin. […] Hepatic stellate cells changed from a flattened fibroblastic phenotype with distinct cell-cell interfaces to a substratum detached, rounded, and blebbed morphology.

[3] = tested on: rat hepatic stellate cells; experiment: Trypan blue exclusion of treated rat hepatic stellate cells; conditions: rat HSC; 1.5 μmol/L gliotoxin or 200 μmol/L chlorpromazine
[4] = tested on: rat hepatic stellate cells; experiment: Hepatic stellate cell apoptosis by acridine orange staining and counting (cycloheximide or serum deprivation), rat cells
Experimental: Human hepatic stellate cells were extracted from the margins of normal human liver resected for colonic metastatic disease as previously described (Iredale et al., Clin. Sci., (1995) 89: 75-81). Rat hepatic stellate cells were extracted from normal rat liver by Pronase and collagenase digestion and purified by centrifugal elutriation as described (Arthur et al., J. Clin. Invest., (1989) 84:1076-1085). Extracted hepatic stellate cells were cultured on plastic until they were activated to a myofibroblastic phenotype after 7 to 10 days. Human and rat hepatic stellate cells were used for experiments after activation in primary culture or before fourth passage. Cells were cultured in Dulbecco's modified Eagle's medium in the presence of 16% fetal calf serum and antibiotics.
Apoptosis of hepatic stellate cells was induced by absolute serum deprivation, cycloheximide treatment (Issa et al., Gut (2001) 48: S48-S57), or exposure to nerve growth factor as previously described (Trim et al., Am. J. Pathol., (2000) 156, 1235-1243). Hepatic stellate cells were cultured in 24-well tissue culture plates. Rat and human hepatic stellate cells were exposed to proapoptotic stimuli with and without recombinant TIMP-1 (Biogenesis, Poole, UK) and other manipulations as detailed below. Following a 4 hour incubation at 37° C., nuclear morphology was assessed by adding acridine orange to each well (final concentration 1 μg/ml) and observing the cells under blue fluorescence. The total number of apoptotic bodies was counted, and any apoptotic bodies floating in the supernatant were included by racking up the objective lens. The total number of cells per field was counted, and an apoptotic index was calculated. Each condition was performed in duplicate, and three high power fields were counted for each well. […] To examine for autocrine effects, hepatic stellate cells were incubated for 18 hours with azide-free polyclonal neutralizing antibodies to TIMP-1 and a nonimmune IgG control (Santa Cruz Biotechnology, Inc., Santa Cruz, Calif.), and responses were assessed by acridine orange staining and counting.
Apoptosis was assessed by acridine orange staining. […] A normal cell lies adjacent to the apoptotic body. This technique was used to determine the percentage of apoptotic hepatic stellate cells following exposure to cyclohexamide in the presence or absence of TIMP-1. Hepatic stellate cells were exposed to 50 μM cyclohexamide and 0, 1, 10, 100 or 200 ng/ml of TIMP-1. Cells treated with serum alone were used as controls. […] Bovine serum albumin, used as a carrier for the TIMP-1 had no antiapoptotic effect.

[5] = tested on: Fas and Fas ligand in human hepatic stellate cells; experiment: Enzyme-linked immunosorbent assay for Fas and Fas ligand; conditions: TIMP-1 142.5 ng/ml, 18 hours, serum deprivation, versus BSA alone
Experimental: Human hepatic stellate cells were grown to confluence and exposed to BSA with and without TIMP-1. Cells and supernatants were harvested, and protein extracts were assayed for Fas and Fas ligand by commercial enzyme-linked immunosorbent assay following the manufacturer's instructions (Calbiochem). The quantities of Fas and Fas ligand were normalized to cell number by DNA quantification using the PicoGreen technique.
Experiments were next performed to determine whether TIMP-1 regulated Fas ligand cleavage in human hepatic stellate cells. Hepatic stellate cells were incubated for 18 hours in conditions of absolute serum deprivation with BSA or BSA with TIMP-1 (142.5 ng/ml). The cells were extracted, and supernatants were collected. After normalizing for cell number (by DNA concentration using the PicoGreen technique), these extracts were analyzed by enzyme-linked immunosorbent assay for Fas and Fas ligand as described under Materials and Methods. […] Supernatant Fas and Fas ligand protein levels were undetectable in all experimental conditions (data not shown, n 3).

Compound | TNF-α-inducible NF-kB DNA binding activity ([1]; 10 ng/mL TNF-α, same concentrations as for constitutive activity) | constitutive NF-kB DNA binding activity ([1]; gliotoxin 1.5 μmol/L, N-acetyl cysteine 5 mM, calpain inhibitor 1 50 μM, dexamethasone 0.5 μm, pentoxyfilline 3.6 mM) | detachment from culture dish substratum ([2]; 1.5 μMol/L gliotoxin, within four hours) | morphologic alterations ([2]; culture activated (14 day) rat HSC, 1.5 μmol/L) | 0.1% (wt/vol) trypan blue exclusion (membrane integrity) [3] | apoptosis induced by cycloheximide (acridine orange) ([4]; 50 μM cycloheximide, 4 hours, TIMP-1 1-200 ng/ml) | apoptosis in serum-free conditions (acridine orange) ([4]; 24 hour incubation in serum-free conditions) | reduction in apoptotic morphology by acridine orange staining and counting ([4]; TIMP-1 10 ng/ml, cycloheximide) [%] | reduction in apoptosis by acridine orange staining and counting ([4]; TIMP-1 100 ng/ml, cycloheximide) [%] | apoptosis induced by cycloheximide (acridine orange) ([4]; rat HSC, protein at 142.5 ng/ml) | cellular Fas or Fas ligand protein levels [5]
CN1C(=O)[C@]23CC4=CC=C[C@H](O)[C@H]4N2C(=O)[C@@]1(CO)SS3 [gliotoxin] | inhibits TNF-α-inducible NF-kB DNA binding activity | does not have a marked inhibitory effect | a majority of the hepatic stellate cells had detached | striking morphologic alterations within one hour | detached cells that excluded 0.1% (wt/vol) trypan blue | – | – | – | – | – | –
TIMP-1: recombinant tissue inhibitor of matrix metalloproteases 1 (Biogenesis) | – | – | – | – | – | significantly reduces apoptosis of activated hepatic stellate cells induced by cycloheximide exposure in a dose-dependent manner | identical effect | 30 | 50 | inhibited apoptosis induced by cycloheximide exposure | had no effect on cellular Fas or Fas ligand protein levels
